Test results taken from US20080255206A1, “Rxr Agonists and Antagonists, Alone or in Combination with Ppar Ligands, in the Treatment of Metabolic and Cardiovascular Diseases” (priority 2005, published 2008).

What was measured:
RXRα [1] = biological target: T1, RXRα (Homo sapiens, UniProt P19793); test: Retinoid activation assay, RXRα (Schneider SL-3 cells, luciferase reporter); assay type: cell-based; conditions: read-out: Activation EC50 RXR α
T1 sequence (P19793 1-462): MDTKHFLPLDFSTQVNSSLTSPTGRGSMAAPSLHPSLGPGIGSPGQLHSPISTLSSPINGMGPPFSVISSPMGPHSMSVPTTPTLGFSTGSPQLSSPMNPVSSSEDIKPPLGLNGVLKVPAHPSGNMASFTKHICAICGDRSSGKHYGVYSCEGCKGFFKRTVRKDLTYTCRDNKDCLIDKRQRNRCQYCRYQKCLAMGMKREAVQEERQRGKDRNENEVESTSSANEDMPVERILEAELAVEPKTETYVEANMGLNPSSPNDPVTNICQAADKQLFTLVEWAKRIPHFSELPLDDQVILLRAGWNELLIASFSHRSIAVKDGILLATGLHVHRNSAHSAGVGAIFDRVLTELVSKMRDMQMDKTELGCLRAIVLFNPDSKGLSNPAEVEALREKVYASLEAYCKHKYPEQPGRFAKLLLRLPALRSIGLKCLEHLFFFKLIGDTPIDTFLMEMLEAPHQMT
Experimental: (§1) Full length RXR cDNA is used for transfection. As reporter system, the luciferase gene is used in a construct with three copies of a RXR response element from rat CRBP gene, (formerly RARE from betaRAR gene), fused to alcoholdehydrogenase gene promoter in the plasmid pGL2-basic. Schneider SL-3 cells from Drosophila are transiently transfected 3-4 h before the experiment by the Ca-phosphate-DNA coprecipitation method. […] At the end of the incubation, the cell supernatants are assayed for luciferase activity. Results are given as EC50 (nM), the concentration leading to half-maximal activation.

RXRα [2] = biological target: T1, RXRα; test: Retinoid binding assay, RXRα; parameters: made in house; host or cells: E. coli; conditions: [3H] 9-cis retinoic acid 20 nM; read-out: Binding Affinity IC50 RXR α
From the text: (§2) The DEF domains of RAR's and the full length RXR's, expressed in E.coli, are used to measure competitive retinoid binding. […] 9-cis retinoic acid (for RXR's), respectively. […] Separation of bound from free radioactivity is achieved by charcoal/dextran (RAR's) or by desalting columns (RXR's). […] Retinoid Activation Assays

RARβ = biological target: T2, RARβ (Homo sapiens, UniProt P10826); test: Retinoid binding assay, RARβ; parameters: The DEF domains of RAR's and the full length RXR's, expressed in E.coli; made in house; host or cells: E. coli; conditions: read-out: Binding Affinity IC50 RAR β
T2 sequence (P10826 183-417 limits assumed): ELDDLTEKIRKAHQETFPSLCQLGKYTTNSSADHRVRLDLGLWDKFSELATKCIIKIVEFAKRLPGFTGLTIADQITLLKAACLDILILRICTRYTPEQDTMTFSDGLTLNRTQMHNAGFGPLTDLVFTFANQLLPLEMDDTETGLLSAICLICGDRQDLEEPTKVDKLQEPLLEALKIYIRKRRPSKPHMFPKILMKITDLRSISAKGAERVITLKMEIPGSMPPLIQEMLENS
From the text: as §2

RARα = biological target: T3, RARα (Homo sapiens, UniProt P10276); test: Retinoid binding assay, RARα; parameters: The DEF domains of RAR's and the full length RXR's, expressed in E.coli; made in house; host or cells: E. coli; conditions: read-out: Binding Affinity IC50 RAR α
T3 sequence (P10276 183-417 limits assumed): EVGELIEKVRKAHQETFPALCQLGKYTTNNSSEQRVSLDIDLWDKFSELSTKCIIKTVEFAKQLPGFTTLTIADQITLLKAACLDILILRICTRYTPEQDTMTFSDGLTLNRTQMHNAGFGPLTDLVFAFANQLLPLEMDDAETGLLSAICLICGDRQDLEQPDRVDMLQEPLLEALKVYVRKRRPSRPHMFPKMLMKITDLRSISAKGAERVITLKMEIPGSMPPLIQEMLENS
From the text: as §2

RXRα Homodimer = biological target: T4, RXRα Homodimer (Homo sapiens, UniProt P19793); test: RXRα homodimer activation (transactivation) assay; assay type: cell-based
T4 construct: expressed in transfected cells; host or cells: mammalian cells (BHK21, CV1, etc)
T4 sequence (P19793 1-462): T1 sequence (P19793 1-462)
From the text: Nuclear hormone receptor (NHR) ligand dependent transcriptional transactivation assay.
This secondary in vitro functional assay to characterize hits from the primary ligand binding screens is a GAL4-LBD transactivation assay. The Gal4-LBD protein consists of an in frame fusion of the transcription factor galactose 4 DNA binding domain from S.cerevisiae with the ligand binding domain (LBD) of a particular NHR. Briefly, a plasmid construct expressing the recombinant chimeric receptor is co-transfected into mammalian cells (BHK21, CV1, etc) with a luciferase reporter plasmid containing several copies in tandem of the GAL4 binding sites (promoter recognition elements) upstream from the minimal promoter driving the luciferase gene. The transfected cells are treated with compounds for 12-24 hours, lysates are produced and assayed for luciferase activity and normalized to internal standards such as GH, growth hormone or SEAP, secreted alkaline phosphatase. Ligand binding stabilizes the LBD conformation that recruits endogenous co-factors that mediate eventually the increased transcriptional activity of the luciferase reporter gene. By comparing the activation profile of a reference ligand or a natural ligand, the EC50 values for agonistic activity of a particular ligand can be measured. The extent of activation that can be measured is indicative of a partial, respectively full agonistic activity of a ligand. […]

RXRγ [3] = biological target: T5, RXRγ (Homo sapiens, UniProt P48443); test: Retinoid activation assay, RXRγ (Schneider SL-3 cells, luciferase reporter); assay type: cell-based; conditions: read-out: Activation EC50 RXR γ
T5 sequence (P48443 1-463): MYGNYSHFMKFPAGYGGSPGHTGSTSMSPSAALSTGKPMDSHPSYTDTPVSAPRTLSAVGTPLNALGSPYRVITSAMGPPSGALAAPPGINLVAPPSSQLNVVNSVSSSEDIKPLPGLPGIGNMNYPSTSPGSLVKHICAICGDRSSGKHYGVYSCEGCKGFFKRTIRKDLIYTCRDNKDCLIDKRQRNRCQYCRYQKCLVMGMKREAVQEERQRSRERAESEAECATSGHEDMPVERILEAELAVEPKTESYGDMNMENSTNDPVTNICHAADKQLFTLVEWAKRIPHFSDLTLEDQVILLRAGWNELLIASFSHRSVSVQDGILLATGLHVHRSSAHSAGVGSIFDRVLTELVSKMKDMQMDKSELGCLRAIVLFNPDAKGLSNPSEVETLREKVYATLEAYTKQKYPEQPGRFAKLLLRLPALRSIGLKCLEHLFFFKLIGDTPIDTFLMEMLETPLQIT
Experimental: as §1

RXRγ [4] = biological target: T5, RXRγ; test: Retinoid binding assay, RXRγ; parameters: made in house; host or cells: E. coli; conditions: [3H] 9-cis retinoic acid 20 nM; read-out: Binding Affinity IC50 RXR γ
From the text: as §2

| EC50 (RXRα [1]) | IC50 (RXRα [2]) | IC50 (RARβ) | IC50 (RARα) | EC50 (RXRα Homodimer) | EC50 (RXRγ [3]) | IC50 (RXRγ [4]) | SMILES |
| --- | --- | --- | --- | --- | --- | --- | --- |
| 3.5 nM | 84 nM | > 10000 nM | > 10000 nM | 3.5 nM | 50 nM | 127 nM | CC(/C=C/[C@@H]1C[C@@H]1c1ccc2c(c1)C(C)(C)CCC2(C)C)=C\C(=O)O (racemic) [Compound 4, (2E,4E)-3-methyl-5-[(1RS,2RS)-2-(5,5,8,8-tetramethyl-5,6,7,8-tetrahydro-naphthalen-2-yl)-cyclopropyl]-penta-2,4-dienoic acid] |
| ≥ 10000 nM | 49 nM | > 10000 nM | > 10000 nM | > 10000 nM | ≥ 10000 nM | 69 nM | CCOc1c([C@@H]2C[C@@H]2/C=C/C(C)=C/C(=O)O)cc(C(C)(C)C)cc1C(C)(C)C (racemic) [Compound 17, (2E,4E)-(1RS,2RS)-5-[2-(3,5-Di-tert-butyl-2-ethoxy-phenyl)-cyclopropyl]-3-methyl-penta-2,4-dienoic acid] |
| 0.8 nM | 150 nM | 1000 nM | 1600 nM | 0.8 nM | ≥ 10000 nM | 160 nM | CC1=C(/C=C/c2sccc2/C=C/C(C)=C/C(=O)O)C(C)(C)CCC1 [Compound 5, (2E,4E)-3-Methyl-5-[2-[(E)-2-(2,6,6-trimethyl-1-cyclohexen-1-yl)ethenyl]-3-thienyl]-2,4-pentadienoic acid] |
| 19 nM | 330 nM | > 10000 nM | > 10000 nM | 19 nM | 140 nM | 240 nM | CC(/C=C/C1=C(c2ccc3c(c2)C(C)(C)CCC3(C)C)CCCC1)=C\C(=O)O [Compound 6, (2E,4E)-3-Methyl-5-[2-(5,5,8,8-tetramethyl-5,6,7,8-tetrahydro-naphthalen-2-yl)-cyclohex-1-enyl]-penta-2,4-dienoic acid] |
| 6 nM | 780 nM | > 10000 nM | > 10000 nM | 6 nM | 400 nM | 970 nM | CC(/C=C/c1ccccc1-c1ccc2c(c1)C(C)(C)CCC2(C)C)=C\C(=O)O [Compound 7, (2E,4E)-3-methyl-5-[2-(5,5,8,8-tetramethyl-5,6,7,8-tetrahydro-naphthalen-2-yl)-phenyl]-penta-2,4-dienoic acid] |
| 9 nM | 80 nM | 2500 nM | 3500 nM | 9 nM | 150 nM | 120 nM | CC(/C=C/C1=C(c2ccc3c(c2)C(C)(C)CCC3(C)C)CCC1)=C\C(=O)O [Compound 12, (2E,4E)-3-Methyl-5-[2-(5,5,8,8-tetramethyl-5,6,7,8-tetrahydro-naphthalen-2-yl)-cyclopent-1-enyl]-penta-2,4-dienoic acid] |
| 1.5 nM | 184 nM | – | 6500 nM | 1.5 nM | 400 nM | 147 nM | C/C(=C/C=C/C(C)=C/C(=O)O)c1cc2c(cc1C)C(C)(C)CCCC2 [Compound 13, (2E,4E,6Z)-3-Methyl-7-(3,5,5,-trimethyl-6,7,8,9-tetrahydro-5H-benzocyclohepten-2-yl)-octa-2,4,6-trienoic acid] |
| 6 nM | 110 nM | – | – | 6 nM | 50 nM | 140 nM | CC1=C(/C=C/C2=C(/C=C/C(C)=C/C(=O)O)CCC2)C(C)(C)CCC1 [Compound 14, (2E,4E)-3-Methyl-5-[2-[(E)-2-(2,6,6-trimethyl-1-cyclohexen-1-yl)ethenyl]-1-cyclopenten-1-yl]-2,4-pentadienoic acid] |
| ≥ 10000 nM | 95 nM | > 10000 nM | > 10000 nM | > 10000 nM | ≥ 10000 nM | 65 nM | CC1=C(C#CC2=C(/C=C/C(C)=C/C(=O)O)CCCCC2)C(C)(C)CCC1 [Compound 18] |

| SMILES | EC50 (RXRα [1]) | IC50 (RXRα [2]) | IC50 (RARβ) | IC50 (RARα) | EC50 (RXRα Homodimer) | EC50 (RXRγ [3]) | IC50 (RXRγ [4]) |
| --- | --- | --- | --- | --- | --- | --- | --- |
| CCCCOc1c([C@@H]2C[C@@H]2/C=C/C(C)=C/C(=O)O)cc(C(C)(C)C)cc1C(C)(C)C (racemic) [Compound 16, (2E,4E)-(1RS,2RS)-5-[2-(3,5-Di-tert-butyl-2-butoxy-phenyl)-cyclopropyl]-3-methyl-penta-2,4-dienoic acid] | ≥ 10000 nM | 65 nM | > 10000 nM | > 10000 nM | > 10000 nM | ≥ 10000 nM | 82 nM |
| CC1=C(/C=C/C2=C(/C=C/C(C)=C/C(=O)O)CCCCC2)C(C)(C)CCC1 [Compound 1, (2E,4E)-3-methyl-5-[2-[(E)-2-(2,6,6-trimethyl-1-cyclohexen-1-yl)ethenyl]-1-cyclohepten-1-yl]-2,4-pentadienoic acid] | 1.4 nM | 110 nM | > 10000 nM | > 10000 nM | 1.4 nM | ≥ 10000 nM | 150 nM |
| CC(/C=C/c1sccc1-c1ccc2c(c1)C(C)(C)CCC2(C)C)=C\C(=O)O [Compound 9] | 2.5 nM | 230 nM | 3800 nM | 3400 nM | 2.5 nM | 90 nM | 230 nM |
| CCCCOc1c(\C(C)=C/C=C/C(C)=C/C(=O)O)cc(C(C)(C)C)cc1C(C)(C)C [Compound 15, (2E,4E,6Z)-7-[2-butoxy-3,5-bis(1,1-dimethylethyl)phenyl]-3-methyl-2,4,6-octatrienoic acid] | ≥ 10000 nM | 30 nM | > 10000 nM | 4200 nM | > 10000 nM | ≥ 10000 nM | 47 nM |
